{
  "source": "paper PMC9232501",
  "about": "“Results of the phase I CCTG IND.231 trial of CX-5461 in patients with advanced solid tumors enriched for DNA-repair deficiencies” (Nature Communications, 2022)",
  "system": "U2OS cells",
  "assay": "CPD (cyclobutane pyrimidine dimer) immunofluorescence after UVA 125 mJ/cm^2",
  "assay_type": "cell-based, Human",
  "settings": "1 h compound exposure",
  "experimental": "Fig. 5 Comparison of G4 ligand photosensitization. […] Vertical axis, fractional survival, horizontal axis log10 drug concentration (M) (f) Representative images of CPD immunofluorescent staining under UV and drug treatment conditions for U2OS cells, quantified from biological duplicates in (g) (h) Scale bar = 100um. U2OS cells were treated with drug or vehicle control, then immediately irradiated with UVA 125 mJ/cm^2; and fixed 1 h later for immunofluorescence staining with CPD antibody. g Distribution of mean intensity of CPD level per cell (total n = in labels), with two biological repeats per condition. Vertical axis, mean CPD intensity per cell, horizontal axis, conditions (h) WT or KO XPA HAP1 cells assayed for cytotoxicity. Vertical axis, fractional survival (WST-1 assay). The horizontal axis, log10 drug concentration (M). Error bars = standard deviation of the mean. Three biological repeats per condition.\nHuman epidermal keratinocytes (HEKa) cells were sourced from Thermo Fisher Scientific, and were grown in EpiLife™ Medium with HKGS. HAP WT and XPA knockout cell lines (Horizon Discovery) were cultured in IMDM, 10% FCS. Human HCT116 cells, U2OS cells (ATCC) were grown in McCoy’s 5 A medium with 10% FBS and L-glutamine. All cell lines are mycoplasma free and have been authenticated by STR or SNP profiling. […]",
  "data": [
    {"smiles": "Cc1cnc(CNC(=O)c2c(=O)c3ccc(N4CCCN(C)CC4)nc3n3c2sc2ccccc23)cn1", "note": "[CX-5461]", "values": [
      {"measurement": "potentiation of CPD formation by UVA", "value": "strong potentiation"}
    ]}
  ]
}
